Results on one compound are retold here after patent US20250051324A1, “PARP INHIBITOR, PHARMACEUTICAL COMPOSITION COMPRISING SAME, AND USE THEREOF” (KEYTHERA (SUZHOU) BIO-PHARMACEUTICALS CO., LIMITED, priority 2021, published 2025).

One data set concerns the target PARP1 (Homo sapiens (Human), UniProt P09874). As to the kind of experiment: PARP enzyme activity assay (PARP1 chemiluminescent assay kit). The settings on record: enzyme inhibitory activity, read-out: PARP-1 IC50. The data set is classed as biochemical. The gist of the method: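 Chemiluminescent kit measuring PARP1 poly(ADP-ribosylation) of plate-coated histones in presence of activated DNA; compounds in 1:3 serial dilution, top 10 μM before 10-fold buffer dilution. Enzyme (2.5 ng/μL added) reacted 60 min at room temperature, detected by streptavidin-HRP luminescence; IC50 from log-concentration vs % inhibition.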

Data set [1] deals with UWB1.289 ovarian cancer cells. Kind of data set: Cell proliferation assay, UWB1.289. The format is cell-based. The settings on record: UWB1289, 168 h, read-out: UWB1.289 Cell IC50. The procedure:
Experimental Materials: MDA-MB-436 or UWB1.289 cell lines were purchased from Cobioer Biosciences Co. Ltd. (Nanjing, China). The STR identification results were a complete match, and mycoplasma testing was negative. MDA-MB-436 cells were cultured in DMEM complete medium containing 10% fetal bovine serum, 1% penicillin-streptomycin, 1% insulin, and 16 μg/mL glutathione; UWB1.289 cells were cultured in RMPI1640 complete medium containing 10% fetal bovine serum and 1% penicillin-streptomycin.
1. MDA-MB-436 or UWB1.289 cells were cultured in the aforementioned medium (culture conditions: 37° C., 5.0% CO2 in air) until they reached the logarithmic growth phase. The cells were then digested with trypsin containing 0.25% EDTA, centrifuged at 1000 rpm, and the supernatant was discarded. Cell culture medium was added, and the cell suspension was adjusted to 2×10^4/mL after counting. 135 μL of the cell suspension per well was taken and cultured in a 96-well cell culture plate for 16 hours (culture conditions: 37° C., 5.0% CO2 in air).
2. The test compounds, stored at a concentration of 10 mM, were diluted 2.5 times with DMSO and then serially diluted in a 1:3 gradient (9 gradients). The gradient-diluted samples were further diluted 40 times with serum-free medium, and 15 μL of each was added to the 96-well cell culture plate. The positive control group received serum-free medium containing the same concentration of DMSO, and the negative control group received medium without cells. The cells were then cultured for an additional 7 days.
3. After the culture period, the cell culture plate was placed at room temperature for 30 minutes. Then, 100 μL of CellCounting-Lite 2.0 reagent (Vazyme, #DD1101) was added to each well, mixed thoroughly, and incubated in the dark at room temperature for 10 minutes. The luminescence signal was read using a Synergy HTX multi-mode reader.
4. Data analysis was performed using GraphPad Prism 8.0 software. The inhibition rate (%) was calculated as 100*(average luminescence signal of the positive control group−luminescence signal of the compound)/(average luminescence signal of the positive control group−average luminescence signal of the negative control group). The IC50 value was obtained by plotting the logarithm of the compound concentration against the percentage inhibition rate.

In data set [2] the test system is MDA-MB-436 breast cancer cells. As to the kind of experiment: Cell proliferation assay, MDA-MB-436. The data set is classed as cell-based. Particulars: Homo sapiens, MDA-MB-436, 168 h, read-out: MDA-MB-436 Cell IC50. The essentials: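 Cells seeded 16 h, then exposed to a 9-point 1:3 compound dilution series for 7 days at 37° C., 5% CO2; DMSO-matched and cell-free controls. Viability by CellCounting-Lite luminescence; IC50 from log concentration versus % inhibition.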

The test system of data set [3] is peripheral blood reticulocytes. As to the kind of experiment: Effect of compound on rat reticulocytes. The format is in vivo. Particulars: 4 days. The procedure: Test Objective: The effect of the compound on peripheral blood reticulocytes was evaluated to determine its impact on bone marrow hematopoietic function.
Test Compounds: Olaparib, Compound 1
Experimental Animals: Male Sprague Dawley rats were purchased from Beijing Charles River Laboratory Animal Technology Co., Ltd. Housing and Management: The experimental animals were housed in SPF-grade, temperature- and humidity-controlled clean rooms, using individually ventilated cages (IVC) with no more than 5 rats per cage. Temperature/humidity was controlled within the range of (23±3)° C./40-70%. Feed and water: SPF-grade rat feed, sterilized by cobalt-60 irradiation. Drinking water was ultrafiltered and autoclaved. Animals had free access to sterile food and water. Animal identification: ear tags.
Experimental Method: The experiment was divided into the following 5 groups: vehicle control group; Olaparib 100 mg/kg; Compound 1 0.1 mg/kg; Compound 1 0.3 mg/kg; and Compound 1 1.0 mg/kg. All treatments were administered orally by gavage once daily for 4 days. Blood samples were collected before and after treatment to measure peripheral blood reticulocyte counts.

Data set [4] can be described thus: Liver microsome metabolism assay. The settings on record: CD1, mouse, liver microsomes. A general note: Microsomes from liver hold many membrane-bound enzymes, among them those of drug oxidation.
Procedure: Experimental Materials: Mixed CD1 mouse liver microsomal enzyme protein was purchased from Xenotech (#M1000), and NADPH was purchased from Abmole (#M9076).
1. To the liver microsomal enzyme reaction system, 210 μL of phosphate buffer was added, followed by 12.5 μL of liver microsomal enzyme at a concentration of 20 mg/mL. Then, 25 μL of NADPH at a concentration of 10 mM was added to the system, mixed well, and incubated in a 37° C. water bath with shaking for 10 minutes.
2. The test compound, stored at a concentration of 10 mM, was diluted to 100 μM with DMSO. Then, 2.5 μL of the diluted test compound was added to the reaction system, mixed well, and incubated in a 37° C. water bath with shaking.
3. At 0.5, 5, 10, 20, 30, and 60 minutes, 25 μL of the enzyme reaction mixture was taken and added to 125 μL of cold acetonitrile containing dexamethasone as an internal standard. The mixture was centrifuged at 4000 g for 20 minutes, and the supernatant was mixed with an equal volume of distilled water. The mixed sample was then subjected to quantitative analysis by liquid chromatography-mass spectrometry.
4. Calculation of in vitro drug metabolism half-life and drug clearance rate:
t1/2=−0.693/k. (k: the slope of the linear regression of the natural logarithm of the percentage of drug remaining versus incubation time).
A short description of data set [5]: Evaluation of pharmacokinetics in mice. The settings on record: male, ICR (CD1), mouse, plasma, po, 10 mg/kg.
Procedure: Test Objective: The pharmacokinetics of the example compounds of the present application were tested in mice. By measuring the drug concentration in mouse plasma, the pharmacokinetic behavior of the compounds of the present invention was studied to evaluate their pharmacokinetic characteristics.
Test Animals: 6-8 Week Old Male ICR (CD1) Mice
Oral Gavage Drug Preparation: An appropriate amount of the test compound was first weighed and dissolved in DMSO (Macklin cas: 67-68-5) to prepare a 20 mg/mL solution. Then, 75 μL of this solution was added to 150 μL of Solutol (Sigma cas: 70142-34-6), followed by 1.275 mL of 20% Captisol (Selleck cas: 182410-00-0), resulting in a final drug concentration of 1 mg/mL.
Intravenous Injection Drug Preparation: An appropriate amount of the test compound was first weighed and dissolved in DMSO (Macklin cas: 67-68-5) to prepare a 30 mg/mL solution. Then, 15 μL of this solution was added to 150 μL of Solutol (Sigma cas: 70142-34-6), followed by 1.335 mL of 20% Captisol (Selleck cas: 182410-00-0), resulting in a final drug concentration of 0.3 mg/mL.
Procedures: The mice were fasted overnight with free access to water before the experiment. Food was restored two hours after dosing. Blood samples were collected at different time points after intravenous injection or oral gavage of the test compound in mice, and the compound concentration in plasma was measured. Approximately 50 μL of blood was collected from each animal using a capillary sampling tube via the orbital venous plexus, with heparin sodium as an anticoagulant. Blood samples were placed on ice, centrifuged at 3500 r/min for 10 minutes to separate the plasma, and 20 μL of the collected plasma was added to 200 μL of acetonitrile (Merck cas: 75-05-8) containing 200 nM dexamethasone (Selleck cas: 50-02-2) as an internal standard. The mixture was centrifuged at 8000 r/min for 20 minutes. After centrifugation, 150 μL of the supernatant was transferred to a new centrifuge tube, and 150 μL of 0.1% formic acid (Fisher cas: 207868) was added. The mixture was mixed well, and 5 μL of the sample was subjected to quantitative analysis by liquid chromatography-mass spectrometry (Q-TOF LC/MS).
The test compound was serially diluted with DMSO to cover the compound concentrations expected in plasma samples to be tested, with a blank sample (containing only DMSO) included.
2 μL of each diluted sample at various concentrations was added to 18 μL of normal ICR mouse plasma, mixed, and then added to 200 μL of acetonitrile (Merck cas: 75-05-8) containing 200 nM dexamethasone (Selleck cas: 50-02-2) as an internal standard. The mixture was centrifuged for 20 minutes (8000 r/min). 150 μL of the supernatant was transferred to a new centrifuge tube, and 150 μL of 0.1% formic acid (Fisher cas: 207868) was added. The mixture was mixed well, and 5 μL of the sample was subjected to quantitative analysis by liquid chromatography-mass spectrometry (Q-TOF LC/MS).
The final standard curve was plotted using the concentration of the test compound after dilution on the abscissa and the ratio of the signal of the compound to the internal standard (dexamethasone) on the ordinate. The standard curve was generated using linear regression with GraphPad Prism 8 software (R2>0.9900).
Data Analysis: calculation of pharmacokinetic parameters: the concentration of the test compound in plasma at different time points after intravenous injection or oral gavage in ICR mice was determined based on the above standard curve, and pharmacokinetic parameters (T1/2, Cmax, AUC, etc.) were calculated using the Phoenix WinNonlin 8.1 non-compartmental analysis model.

Sequence of PARP1 (P09874 whole entry): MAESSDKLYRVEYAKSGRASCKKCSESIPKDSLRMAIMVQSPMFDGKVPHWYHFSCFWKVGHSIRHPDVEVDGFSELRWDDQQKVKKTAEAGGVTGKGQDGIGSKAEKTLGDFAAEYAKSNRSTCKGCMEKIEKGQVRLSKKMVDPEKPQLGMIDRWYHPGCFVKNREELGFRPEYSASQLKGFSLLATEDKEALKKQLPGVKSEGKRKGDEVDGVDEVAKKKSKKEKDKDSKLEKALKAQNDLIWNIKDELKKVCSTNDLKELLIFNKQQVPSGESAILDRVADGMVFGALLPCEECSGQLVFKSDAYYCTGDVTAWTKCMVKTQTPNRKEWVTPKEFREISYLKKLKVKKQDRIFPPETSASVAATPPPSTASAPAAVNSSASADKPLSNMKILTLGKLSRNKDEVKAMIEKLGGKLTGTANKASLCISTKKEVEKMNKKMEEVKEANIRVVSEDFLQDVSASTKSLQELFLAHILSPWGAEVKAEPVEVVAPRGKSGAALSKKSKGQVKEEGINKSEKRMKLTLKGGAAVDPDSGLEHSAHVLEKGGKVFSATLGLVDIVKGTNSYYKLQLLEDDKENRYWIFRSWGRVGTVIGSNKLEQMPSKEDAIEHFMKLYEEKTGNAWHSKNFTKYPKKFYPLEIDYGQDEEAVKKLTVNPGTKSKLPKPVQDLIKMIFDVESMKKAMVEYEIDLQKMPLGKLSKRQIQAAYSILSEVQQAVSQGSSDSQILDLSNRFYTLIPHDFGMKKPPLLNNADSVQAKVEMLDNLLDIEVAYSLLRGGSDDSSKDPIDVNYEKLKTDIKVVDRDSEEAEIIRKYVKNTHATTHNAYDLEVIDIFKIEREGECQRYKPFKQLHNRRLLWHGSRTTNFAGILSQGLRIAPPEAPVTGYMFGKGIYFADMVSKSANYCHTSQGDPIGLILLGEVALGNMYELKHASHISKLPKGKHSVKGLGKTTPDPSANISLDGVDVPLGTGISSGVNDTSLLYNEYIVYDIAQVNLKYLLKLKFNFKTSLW

In general, IC50 refers to the point on the concentration scale where inhibition reaches its midpoint. As usually defined, the microsomal CLint is the rate of metabolic loss divided by the concentration. Lower therefore signals greater metabolic stability. The term AUC(0-inf) denotes total exposure, with the tail of the curve extrapolated. A low value points to low exposure. The term Cmax denotes the maximum level reached in the sampled fluid or tissue. Usually half-life stands for the time in which the quantity being followed falls by half. A low value points to fast loss. Turning to `CNC(=O)c1ccc(N2CCN(Cc3cnc4c(C)c(C(F)(F)F)c(=O)[nH]c4c3)CC2)cn1` [Compound 1, N-methyl-5-(4-((8-methyl-6-oxo-7-(trifluoromethyl)-5,6-dihydro-1,5-naphthyridin-3-yl)methyl)piperazin-1-yl)picolinamide], the half-maximal inhibitory concentration (IC50) on PARP1 was 2.78 nM; in data set [1] it was 0.66 nM; in data set [2], 1.59 nM. Moreover, the “Reticulocyte Inhibition Rate” value in data set [3] (0.1 mg/kg oral once daily) worked out at 12.2%; in data set [3] (0.3 mg/kg oral once daily), 33.8%; in data set [3] (1.0 mg/kg oral once daily), 41.9%. In addition, in data set [3] (0.1, 0.3 and 1.0 mg/kg, p>0.05), the “Effect on peripheral blood reticulocytes (in words)” value is recorded as “no significant effect”. Also, the microsomal CLint at 1 µM in data set [4] was determined as 0.32 µL/min/mg. This compound showed an AUC(0-inf) in data set [5] of 972 µg·h/mL. The compound also showed a peak concentration (Cmax) in data set [5] of 39600 ng/mL. In data set [5], this compound had a half-life of 17.9 h.
